According to US11672786B2, “Methods of treating diseases associated with repeat instability” (The Hospital for Sick Children, priority 2016, dated 2023):

What was measured:
[1] = tested on: d(CAG)10; settings: ESI-TOF MS; cited from earlier work
[2] = tested on: CASK, HTT (normal allele), Mfd15 and TBP loci in HD fibroblasts; experiment: repeat-tract lengths of non-expanded loci in HD fibroblasts; assay type: cell-based, human
From the text: (§1) Scale bar represents 20 μm. […] The cell viability was estimated with WST-1 assays. Values represent the means of three independent measures±SD. […] Error bars indicate the SD of triplicate experiments. […] The dashed line indicates the peak CAG size. Allele lengths are grouped in bins spanning 10 repeats. More than 230 alleles were sized per group.
FIG. 12 are representative data showing ultra-sensitive small-pool PCR for the non-expanded CAG/CTG repeat length of CASK in HD primary fibroblast cells (Panel A of FIG. 12) and HT1080-(CAG)850 cells (Panel B of FIG. 12). […] Repeat lengths were analyzed by Agilent BioAnalyzer.
Genomic DNA was extracted from HT1080-(CAG)850 clones and HD primary fibroblasts using the Gentra Puregene Cell Kit (Qiagen, Valencia, Calif.). […] At least 50 alleles were analyzed for each of the three experiments (more than 150 alleles for a total study). […] For the histograms in FIGS. 4D, 4E, 10, 11, 5B, 5D, 5E, 14 and 15B, the Y-axis, “% of repeat population” was calculated by determining the proportion of >50 individual small-pool PCR reactions across the CAG repeat tract, that harbored a certain size of repeat product with a certain length. […] Length distributions were determined as follows: Small-pool PCR followed by Southern blot for analysis of CAG/CTG repeat length. […]

[3] = tested on: HT1080-(CAG)850 cells; experiment: cellular distribution by confocal microscopy; assay type: cell-based, human
Description: as §1
HT1080-(CAG)850 cells were incubated with 50-μM NBD-labeled NA for 48 hr and Cell Light Plasma Membrane-RFP, BacMam 2.0 (Life Technologies, Carlsbad, Calif.), then fixed for 15 min at RT with 4% paraformaldehyde and washed 2 times for 10 min in phosphate buffered saline (PBS). Cells were mounted with Vectashield hard-set mounting media that contains DAPI (Vector Laboratories, Burlingame, Calif.). Fluorescence images were obtained using Olympus FV1000D confocal laser scanning microscope (Olympus, Tokyo, Japan).

## naphthyridine-azaquinolone
[1]
  number of NA molecules bound to the repeat: at least 6 NA molecules
[2]; 40 days incubation with or without NA
  length variation at CASK, HTT (normal allele), and Mfd15 loci: Length variation was not observed
[2]; HD patient cells, 40 days
  length distribution of non-mutant TBP repeats (38 and 34 repeats): did not change the length distribution of the TBP repeats
[3]
  cell permeability: cell-permeable and can enter the nuclei
